We go through six molecules from the supplement of paper PMC4862054.

Assay in all cases: normalised response (% of control), CellTiter-Glo; higher = more viable cells (100 = DMSO, 0 = benzethonium chloride kill control)
Common to all, as to conditions: incubation time: 72 h

The subject of one assay is DU-4475. In outline:
(§1)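 Normalised signals at single concentrations make up the values. They come from breast cancer cell lines seeded (20 µl suspension) into 384-well plates with compound at 5 concentrations in 10-fold steps over a compound-specific 10,000-fold range, incubated 72 h, and read for CellTox Green fluorescence then CellTiter-Glo luminescence. Each plate was normalised to 0.1 % DMSO (100) and a positive kill control (0).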

The next assay deals with MDA-MB-436. In outline: as §1
Another assay concerns CAL-85-1. In outline:
as §1

For another assay, the system named is MCF-10A. In outline: as §1
The subject of the next assay is CAL-120. In outline:
as §1

The subject of another assay is Hs578T. In outline: as §1
Another assay deals with MDA-MB-231. An outline of the steps: as §1
The test system of the next assay is HCC1937. An outline of the steps: as §1
The test system of another assay is MDA-MB-468. In outline:
as §1

The subject of another assay is BT-549. In outline: as §1
Another assay deals with HCC1143. In outline: as §1
Another assay deals with CAL-148. In outline: as §1
In a further assay the test system is HDQ-P1. In outline:
as §1

The test system of the next assay is CAL-51. In outline:
as §1

The test system of a further assay is BT-474. In outline:
as §1

In a further assay the test system is MDA-MB-453. An outline of the steps: as §1
The subject of the next assay is HCC1599. An outline of the steps: as §1
The next assay concerns MFM-223. In outline: as §1

Regarding `CC(=O)O[C@H]1C(=O)[C@@]2(C)[C@H]([C@H](OC(=O)c3ccccc3)[C@]3(O)C[C@H](OC(=O)[C@H](O)[C@@H](NC(=O)c4ccccc4)c4ccccc4)C(C)=C1C3(C)C)[C@]1(OC(C)=O)CO[C@@H]1C[C@@H]2O` [Paclitaxel] (1 nM), the normalised response was 92.2% in the assay on DU-4475; 91.4% in the assay on MDA-MB-436; 99.5% in the assay with CAL-85-1; 81.5% with MCF-10A; 91.6% in the assay with CAL-120; 88.8% in the assay on Hs578T. Besides, the normalised response worked out at 88.6% with MDA-MB-231; 94.7% in the assay on HCC1937; 96.1% with MDA-MB-468; 93.1% with BT-549; 90.4% with HCC1143; 89.2% in the assay with CAL-148. Besides, the normalised response was determined as 89.8% in the assay on HDQ-P1; 129% with CAL-51; 89.5% in the assay on BT-474; 92.8% in the assay with MDA-MB-453; 97.8% in the assay with HCC1599; 89.5% in the assay on MFM-223.
Turning to `CC(C)C[C@H](NC(=O)[C@H](Cc1ccccc1)NC(=O)c1cnccn1)B(O)O` [Bortezomib] (1 nM), the normalised response with DU-4475 was 101%; in the assay on MDA-MB-436 it was 90.8%; with CAL-85-1, 98.8%; with MCF-10A, 102%; in the assay on CAL-120 it was 102%; with Hs578T, 109%. Moreover, the normalised response with MDA-MB-231 stood at 104%; in the assay with HCC1937, 98.8%; with MDA-MB-468, 95%; in the assay on BT-549 it was 98.2%; in the assay on HCC1143, 94.2%; with CAL-148, 102%. The normalised response was found to be 101% with HDQ-P1; 77.6% in the assay on CAL-51; 99.2% with BT-474; 97% in the assay with MDA-MB-453; 108% in the assay with HCC1599; 103% in the assay on MFM-223.
As for `O=c1[nH]cc(F)c(=O)[nH]1` [Fluorouracil] (10 nM), the normalised response turned out to be 110% in the assay with DU-4475; 99.1% with MDA-MB-436; 96.1% with CAL-85-1; 111% in the assay with MCF-10A; 95.1% in the assay with CAL-120; 110% with Hs578T. Moreover, the normalised response with MDA-MB-231 was 107%; with HCC1937 it was 106%; in the assay with MDA-MB-468 it was 105%; in the assay with BT-549, 107%; in the assay on HCC1143, 121%; with CAL-148, 112%. Besides, the normalised response in the assay with HDQ-P1 came out at 102%; in the assay on CAL-51, 104%; with BT-474, 103%; in the assay with MDA-MB-453, 101%; in the assay on HCC1599, 99.3%; with MFM-223, 113%.
As for `O=c1[nH]c(=O)n([C@H]2C[C@H](O)[C@@H](CO)O2)cc1F` [Floxuridine] (10 nM), the normalised response was found to be 98.1% with DU-4475; 92.5% in the assay with MDA-MB-436; 104% with CAL-85-1; 105% in the assay on MCF-10A; 99.5% with CAL-120; 92.3% with Hs578T. The normalised response in the assay with MDA-MB-231 amounted to 105%; with HCC1937, 98.2%; with MDA-MB-468 it was 96.7%; with BT-549 it was 100%; in the assay with HCC1143, 109%; in the assay with CAL-148, 110%. In addition, the normalised response with HDQ-P1 came to 90.2%; with CAL-51, 122%; in the assay on BT-474 it was 102%; in the assay with MDA-MB-453, 111%; with HCC1599, 93.1%; with MFM-223 it was 111%.
With `COc1c(C)cnc(Cn2cnc3c(Cl)nc(N)nc32)c1C` [BIIB021] (10 nM), the normalised response in the assay with DU-4475 stood at 102%; in the assay with MDA-MB-436, 101%; in the assay with CAL-85-1 it was 96.9%; with MCF-10A it was 96.6%; in the assay with CAL-120 it was 99%; with Hs578T it was 97.6%. In addition, the normalised response turned out to be 99.3% with MDA-MB-231; 105% in the assay with HCC1937; 102% with MDA-MB-468; 99.6% in the assay with BT-549; 108% in the assay on HCC1143; 94.6% with CAL-148. Moreover, the normalised response in the assay with HDQ-P1 came out at 97.5%; in the assay with CAL-51, 116%; in the assay with BT-474, 101%; in the assay with MDA-MB-453 it was 102%; with HCC1599 it was 109%; in the assay on MFM-223 it was 102%.
For the molecule `Nc1nccc(-c2c(-c3ccc(F)cc3)ncn2C2CCCCC2)n1` (10 nM), the normalised response in the assay with DU-4475 amounted to 107%; in the assay with MDA-MB-436, 95.7%; with CAL-85-1, 106%; with MCF-10A, 111%; in the assay with CAL-120, 102%; in the assay with Hs578T, 107%. Moreover, the normalised response is 100% in the assay with MDA-MB-231; 100% in the assay on HCC1937; 96% with MDA-MB-468; 90.7% with BT-549; 110% with HCC1143; 116% with CAL-148. Further, the normalised response in the assay with HDQ-P1 turned out to be 102%; in the assay on CAL-51, 104%; in the assay on BT-474, 106%; in the assay with MDA-MB-453 it was 106%; in the assay with HCC1599, 86.8%; with MFM-223, 110%.
